Patent US9518000B2, “Bicyclo [2.2.1] acid GPR120 modulators” (BRISTOL-MYERS SQUIBB COMPANY, priority 2013, dated 2016)

molecular target: human GPR120 (Homo sapiens (Human), UniProt Q5NUL3); experiment: GPR120 pERK AlphaScreen SureFire Assay (human GPR120 pERK assay); assay type: cell-based; conditions: CHOA12 or CHO-K1 cells stably transfected with the short form of human GPR120 receptor; phosphorylated ERK; read-out: EC50 values measured in the human GPR120 pERK assay
Description: GPR120 activity was monitored by measuring phosphorylation of ERK (pERK), since G protein receptors are known to activate the ERK signaling cascade either directly and/or through recruitment of arrestin that serves as a scaffold for downstream signaling events.
GPR120 pERK AlphaScreen SureFire Assay
The human and mouse GPR120-mediated intracellular phosphorylated ERK assays were established using CHOA12 cells stably transfected with the short form of human or mouse GPR120 receptor. Cells were cultured in growth medium consisting of F-12 media (Invitrogen Cat. #11765) with 5% Charcoal/Dextran FBS (Invitrogen Cat. #12676-029), 500 μg/mL GENETICIN® (Life Technologies Cat. #10131-027) and 250 μg/mL Zeocin (Invitrogen Cat. #R250-01). Cells were cryo preserved at a concentration of 2×10^7 cells/mL, in 90% Charcoal/Dextran FBS and 10% DMSO, and frozen in liquid nitrogen at a low passage number.
For the pERK assay, 2×10^7 cells/mL cryopreserved human and mouse cells were thawed rapidly in a 37° C. water bath and added to a T-225 flask containing 50 mL growth medium. The flasks were placed in a tissue culture incubator overnight (37° C., 5% CO2). The next day, cells were harvested with trypsin (Gibco Cat. #25300-054), resuspended in serum-containing growth medium and counted using a Cellometer and volume adjusted to a concentration of 0.6×10^6 cells/mL. Cells were plated into 384-well clear bottom tissue culture plates (BD Cat. #353962) at 50 μL/well, for a density of 30,000 cells/well using a MULTIDROP® and incubated for 16-18 hours (overnight) at 37° C. with 5% CO2. The next day, cells were serum starved in 30 μL of F-12 media without any serum or antibiotics for 2 hours at 37° C.
Test compounds were 3-fold, 11-point serially diluted in DMSO in a REMP assay plate (Matrix Cat. #4307) by Tecan and 5 μL was transferred into an ECHO source plate (LabCyte Cat. #LC-0200). Cells were then stimulated with 50 nL of compound dilutions using ECHO liquid handler for 7 minutes at 37° C. Compounds ranged from final assay concentrations of 33.33 μM to 0.56 nM.
The media was then dumped and cells lysed with 20 μL of 1× Lysis buffer from the AlphaScreen SureFire Phospho-ERK 1/2 Kit (Perkin Elmer Cat. #6760617M). The lysis buffer was diluted 5-fold with water before use. The plate was agitated on a shaker for 10 minutes after which 2 μL was transferred into a 384-well white proxiplate (Perkin Elmer Cat. #6008289). The SureFire assay reagent mix was prepared by mixing 60 parts Reaction Buffer, 10 parts Activation Buffer, 1 part Donor Beads, 1 part Acceptor Beads (Perkin Elmer Cat. #TGRES10K). 3.5 μL/well of this reagent mix was manually added to the proxiplate with a multichannel pipettor. Plates were spun down at 1000 rpm for 2 minutes, followed by light-protected incubation at room temperature for 2 hours. The plates were read on the Alpha-technology compatible Envision multilabel plate reader using AlphaScreen protocol according to manufacturer's specifications. The agonist effect of compounds was expressed as 100×(average sample-average blank)/(average total−average blank) where sample is the luminescence activity in the presence of test compound, blank is equal to the luminescence activity in the presence of DMSO control and the total is signal induced by 50 μM linolenic acid as reference compound. Activation data for the test compound over a range of concentrations was plotted as percentage activation of the test compound (100%=maximum response). After correcting for background, EC50 values were determined. The EC50 is defined as the concentration of test compound which produces 50% of the maximal response and was quantified using the 4 parameter logistic equation to fit the data.
The human and mouse GPR120-mediated intracellular phosphorylated ERK assays were also established using CHO-K1 cells stably transfected with the short form of human or mouse GPR120 receptor. […]

human GPR120, sequence (Q5NUL3 whole entry): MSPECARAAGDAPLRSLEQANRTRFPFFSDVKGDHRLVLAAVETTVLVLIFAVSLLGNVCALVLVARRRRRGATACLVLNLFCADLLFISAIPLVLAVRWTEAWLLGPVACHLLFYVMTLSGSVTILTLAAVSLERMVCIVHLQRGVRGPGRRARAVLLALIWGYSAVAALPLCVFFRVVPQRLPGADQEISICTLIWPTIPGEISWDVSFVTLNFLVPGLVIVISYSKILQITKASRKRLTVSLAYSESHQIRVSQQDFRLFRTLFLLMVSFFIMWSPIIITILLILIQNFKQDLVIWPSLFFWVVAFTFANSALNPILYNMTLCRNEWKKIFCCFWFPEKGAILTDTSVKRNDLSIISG

Compound	EC50
O=C(O)C1CC1CC12CCC(OCc3cc(F)cc(Oc4ccccc4)c3)(CC1)C2 (racemic) [Example 91, 2-((4-((3-Fluoro-5-phenoxybenzyl)oxy)bicyclo[2.2.1]heptan-1-yl)methyl)cyclopropanecarboxylic acid]	0.28 µM
CC(C)Oc1ccc(Cl)cc1COC12CCC(CCCC(=O)O)(CC1)C2 [Example 5, 4-(4-(5-chloro-2-isopropoxy-benzyloxy)bicyclo[2.2.1]heptan-1-yl) butanoic acid]	1.02 µM
OCCC12CCC(OCc3cc(F)cc(Oc4ccccc4)c3)(CC1)C2 [Example 99, 2-(4-((3-Fluoro-5-phenoxybenzyl)oxy)bicyclo[2.2.1]heptan-1-yl)ethanol]	6.36 µM
O=C(O)CCCC12CCC(OCc3cccc(Oc4ccc(Cl)cc4)c3)(CC1)C2 [Example 32, 4-(4-(3-(4-chlorophenoxy)benzyloxy)bicyclo [2.2.1]heptan-1-yl) butanoic acid]	0.59 µM
4-(4-(2-(trifluoro- methoxy) benzoyloxy) bicyclo[2.2.1] heptan-1-yl) butanoic acid [Example 20]	0.71 µM
CNC(=O)CCCC12CCC(OCc3cccc(Oc4ccccc4)c3)(CC1)C2 [Example 84, N-Methyl-4-(4-((3-phenoxybenzyl)oxy)bicyclo[2.2.1]heptan-1-yl)butanamide]	3.03 µM
Cc1nc(-c2cccc(COC34CCC(CCCC(=O)O)(CC3)C4)c2)no1 [Example 37, 4-(4-(3-(5-methyl-1,2,4-oxadiazol-3-yl)benzyloxy)bicyclo[2.2.1]heptan-1-yl) butanoic acid]	3.12 µM
O=C(O)CCCC12CCC(OCc3ccc(Cl)cc3)(CC1)C2 [Example 24, 4-(4-(4-chloro-benzyloxy)bicyclo[2.2.1]heptan-1-yl) butanoic acid]	2.8 µM
O=C(O)CCCC12CCC(OCc3cccc(Oc4ccccc4)c3)(CC1)C2 [Example 15, 4-(4-(3-phenoxy-benzyloxy)bicyclo[2.2.1]heptan-1-yl) butanoic acid]	0.36 µM
O=C(O)CCCC12CCC(OCc3cc(F)cc(Cl)c3)(CC1)C2 [Example 22, 4-(4-(3-chloro-5-fluorobenzyl-oxy)bicyclo [2.2.1]heptan-1-yl)butanoic acid]	0.73 µM
COc1ccc(OC(F)(F)F)cc1COC12CCC(CCCC(=O)O)(CC1)C2 [Example 29, 4-(4-(2-methoxy-5-(trifluorometh-oxy)benzyloxy)bicyclo[2.2.1]heptan-1-yl) butanoic acid]	5.07 µM
CC1(C)Cc2cc(Cl)cc(COC34CCC(COCC(=O)O)(CC3)C4)c2O1 [Example 77, 2-((4-((5-chloro-2,2-dimethyl-2,3-dihydrobenzofuran-7-yl)methoxy)bicyclo[2.2.1]heptan-1-yl)methoxy)acetic acid]	4.53 µM
COc1cc(Cl)cc(COC23CCC(CCCC(=O)O)(CC2)C3)c1 [Example 31, 4-(4-(3-chloro-5-methoxybenzyl-oxy)bicyclo [2.2.1]heptan-1-yl)butanoic acid]	0.9 µM
OCC(O)CCC12CCC(OCc3cc(F)cc(Oc4ccccc4)c3)(CC1)C2 (single isomer, unassigned) [Example 97, 4-(4-((3-Fluoro-5-phenoxybenzyl)oxy)bicyclo[2.2.1]heptan-1-yl)butane-1,2-diol]	2.48 µM
O=C(O)CCCC12CCC(OCc3cc(F)cc(OC(F)(F)F)c3)(CC1)C2 [Example 28, 4-(4-(3-fluoro-5-(trifluorometh-oxy)benzyloxy)bicyclo[2.2.1]heptan-1-yl) butanoic acid]	0.39 µM
OCC(O)CCC12CCC(OCc3cc(F)cc(Oc4ccccc4)c3)(CC1)C2 (single isomer, unassigned) [Example 96, 4-(4-((3-Fluoro-5-phenoxybenzyl)oxy)bicyclo[2.2.1]heptan-1-yl)butane-1,2-diol]	0.38 µM

Compound	EC50
Cc1ccc(COC23CCC(CCCC(=O)O)(CC2)C3)cc1F [Example 12, 4-(4-(3-fluoro-4-methylbenzyl-oxy)bicyclo [2.2.1]heptan-1-yl)butanoic acid]	6.72 µM
O=C(O)[C@@H]1C[C@H]1CC12CCC(OCc3cc(F)cc(Oc4ccccc4)c3)(CC1)C2 (single isomer, unassigned) [Example 93]	0.88 µM
CC1(C)Cc2cc(Cl)cc(COC34CCC(CCCO)(CC3)C4)c2O1 [Example 70, 3-(4-((5-Chloro-2,2-dimethyl-2,3-dihydrobenzofuran-7-yl)methoxy)bicyclo[2.2.1]heptan-1-yl)propan-1-ol]	7.25 µM
O=C(O)CCCC12CCC(OCc3cccc(C(F)(F)F)c3Cl)(CC1)C2 [Example 55, 4-(4-(2-chloro-3-(trifluoromethyl)benzyloxy) [2.2.1]heptan-1-yl)butanoic acid]	0.17 µM
O=C(O)CCC12CCC(OCCc3cccc(Oc4ccccc4)c3)(CC1)C2 [Example 88, 3-(4-(3-phenoxyphenethoxy)bicyclo[2.2.1]heptan-1-yl)propanoic acid]	2.64 µM
O=C(O)/C=C/CC12CCC(OCc3cccc(Oc4ccccc4)c3)(CC1)C2 [Example 94, (E)-4-(4-((3-Phenoxybenzyl)oxy)bicyclo[2.2.1]heptan-1-yl)but-2-enoic acid]	0.63 µM
COc1ccc(F)c(COC23CCC(CCCC(=O)O)(CC2)C3)c1 [Example 2, 4-(4-(2-fluoro-5-methoxybenzyl-oxy)bicyclo [2.2.1]heptan-1-yl)butanoic acid]	1.82 µM
O=C(O)CCCC12CCC(OCc3ccc(Cl)cc3Cl)(CC1)C2 [Example 41, 4-(4-(2,4-dichlorobenzyloxy)bicyclo[2.2.1]heptan-1-yl) butanoic acid]	1.1 µM
O=C(O)CCCC12CCC(OCc3c(Cl)ccc(Cl)c3Cl)(CC1)C2 [Example 59, 4-(4-(2,3,6-trichlorobenzyl-oxy)bicyclo [2.2.1]heptan-1-yl)butanoic acid]	0.61 µM
O=C(O)CCCC12CCC(OCc3cccc(SC(F)(F)F)c3)(CC1)C2 [Example 50, 4-(4-(3-(trifluoro-methylthio)benzyloxy)bicyclo[2.2.1]heptan-1-yl) butanoic acid]	0.54 µM
O=C(O)CCCC12CCC(OCc3cc(F)ccc3OC(F)(F)F)(CC1)C2 [Example 44, 4-(4-(5-fluoro-2-(trifluorometh-oxy)benzyloxy)bicyclo[2.2.1]heptan-1-yl) butanoic acid]	0.93 µM
O=C(O)CCCC12CCC(OC3CCc4c(Cl)cc(Cl)cc43)(CC1)C2 (stereo not shown) [Example 9, 4-(4-(4,6-dichloro-2,3-dihydro-1H-inden-1-yloxy)bicyclo[2.2.1]heptan-1-yl) butanoic acid]	0.6 µM
NC(=O)CNC(=O)CCCC12CCC(OCc3cc(F)cc(Oc4ccccc4)c3)(CC1)C2 [Example 98, N-(2-Amino-2-oxoethyl)-4-(4-((3-fluoro-5-phenoxybenzyl)oxy)bicyclo[2.2.1]heptan-1-yl)butanamide]	2.68 µM
O=C(O)COCC12CCC(OCc3cccc(Oc4ccccc4)c3)(CC1)C2 [Example 74, 2-((4-(3-phenoxybenzyloxy)bicyclo[2.2.1]heptan-1-yl)methoxy)acetic acid]	1.43 µM
COc1cc(F)cc(COC23CCC(CCCC(=O)O)(CC2)C3)c1 [Example 27, 4-(4-(3-fluoro-5-methoxybenzyl-oxy)bicyclo [2.2.1]heptan-1-yl)butanoic acid]	1.56 µM
